Test results: patent US20100041089A1, “IMPROVED METHOD FOR DETECTING CHEMICAL […]” (priority 2006, published 2010)

System: yeast genes (expressed mRNA)
Test: DNA chip measurement of expressed mRNA of yeast genes after culture with a toxic chemical substance
Format: cell-based, Saccharomyces cerevisiae S288C
Method in brief: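 Two-hour exposure of growing S. cerevisiae S288C (YPD, 25° C) to a sublethal toxicant preceded RNA isolation. Fluorescent cDNA was hybridized to a whole-genome array; a treated-to-untreated signal ratio of two or more was taken as significant.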

## CCCCCCCCCCCCOS(=O)(=O)[O-].[Na+] [(18), Sodium lauryl sulfate]
Yeast gene YAL053W, cultured two hours with substance
  The level of expressed mRNA in the presence of chemical substance/The level of expressed mRNA in the absence of chemical substance: 1.6
Yeast gene YAR028W, cultured two hours with substance
  The level of expressed mRNA in the presence of chemical substance/The level of expressed mRNA in the absence of chemical substance: 2.1
Yeast gene YAR031W, cultured two hours with substance
  The level of expressed mRNA in the presence of chemical substance/The level of expressed mRNA in the absence of chemical substance: 2.5
Yeast gene YBL048W, cultured two hours with substance
  The level of expressed mRNA in the presence of chemical substance/The level of expressed mRNA in the absence of chemical substance: 1.0
Yeast gene YBL057C, cultured two hours with substance
  The level of expressed mRNA in the presence of chemical substance/The level of expressed mRNA in the absence of chemical substance: 1.2
Yeast gene YBL107C, cultured two hours with substance
  The level of expressed mRNA in the presence of chemical substance/The level of expressed mRNA in the absence of chemical substance: 1.4
Yeast gene YBR005W, cultured two hours with the substance
  The level of expressed mRNA in the presence of chemical substance/The level of expressed mRNA in the absence of chemical substance: 4.6
Yeast gene YCL035C (detoxification protein gene)
  The level of expressed mRNA in the presence of chemical substance/The level of expressed mRNA in the absence of chemical substance: 4.2
Yeast gene YCL035C (stress protein genes)
  The level of expressed mRNA in the presence of chemical substance/The level of expressed mRNA in the absence of chemical substance: 4.2
Yeast gene YCR015C, cultured two hours with the chemical substance
  The level of expressed mRNA in the presence of chemical substance/The level of expressed mRNA in the absence of chemical substance: 1.2
Yeast gene YDL072C, cultured two hours with substance
  The level of expressed mRNA in the presence of chemical substance/The level of expressed mRNA in the absence of chemical substance: 2.8
Yeast gene YDL110C, cultured two hours with substance
  The level of expressed mRNA in the presence of chemical substance/The level of expressed mRNA in the absence of chemical substance: 4.4
Yeast gene YDL204W, cultured two hours with substance
  The level of expressed mRNA in the presence of chemical substance/The level of expressed mRNA in the absence of chemical substance: 2.7
Yeast gene YDL222C, cultured two hours with substance
  The level of expressed mRNA in the presence of chemical substance/The level of expressed mRNA in the absence of chemical substance: 1.3
Yeast gene YDR018C, cultured two hours with substance
  The level of expressed mRNA in the presence of chemical substance/The level of expressed mRNA in the absence of chemical substance: 1.2
Yeast gene YDR031W, cultured two hours with substance
  The level of expressed mRNA in the presence of chemical substance/The level of expressed mRNA in the absence of chemical substance: 2.5
Yeast gene YDR070C, cultured two hours with substance
  The level of expressed mRNA in the presence of chemical substance/The level of expressed mRNA in the absence of chemical substance: 3.1
Yeast gene YDR330W, cultured two hours with substance
  The level of expressed mRNA in the presence of chemical substance/The level of expressed mRNA in the absence of chemical substance: 1.3
Yeast gene YDR350C, cultured two hours with substance
  The level of expressed mRNA in the presence of chemical substance/The level of expressed mRNA in the absence of chemical substance: 1.2
Yeast gene YDR391C, cultured two hours with substance
  The level of expressed mRNA in the presence of chemical substance/The level of expressed mRNA in the absence of chemical substance: 2.4
Yeast gene YDR411C, cultured two hours with substance
  The level of expressed mRNA in the presence of chemical substance/The level of expressed mRNA in the absence of chemical substance: 1.3
Yeast gene YDR482C, cultured two hours with substance
  The level of expressed mRNA in the presence of chemical substance/The level of expressed mRNA in the absence of chemical substance: 1.2
Yeast gene YDR486C, cultured two hours with substance
  The level of expressed mRNA in the presence of chemical substance/The level of expressed mRNA in the absence of chemical substance: 1.7
Yeast gene YDR511W, cultured two hours with substance
  The level of expressed mRNA in the presence of chemical substance/The level of expressed mRNA in the absence of chemical substance: 1.5
Yeast gene YDR531W, cultured two hours with substance
  The level of expressed mRNA in the presence of chemical substance/The level of expressed mRNA in the absence of chemical substance: 1.2
Yeast gene YDR545W, cultured two hours with substance
  The level of expressed mRNA in the presence of chemical substance/The level of expressed mRNA in the absence of chemical substance: 0.9
Yeast gene YEL001C, cultured two hours with substance
  The level of expressed mRNA in the presence of chemical substance/The level of expressed mRNA in the absence of chemical substance: 1.3
Yeast gene YER004W, cultured two hours with substance
  The level of expressed mRNA in the presence of chemical substance/The level of expressed mRNA in the absence of chemical substance: 1.2
Yeast gene YER035W, cultured two hours with substance
  The level of expressed mRNA in the presence of chemical substance/The level of expressed mRNA in the absence of chemical substance: 2.1
Yeast gene YER038C, cultured two hours with substance
  The level of expressed mRNA in the presence of chemical substance/The level of expressed mRNA in the absence of chemical substance: 1.4
Yeast gene YER079W, cultured two hours with substance
  The level of expressed mRNA in the presence of chemical substance/The level of expressed mRNA in the absence of chemical substance: 1.6
Yeast gene YER106W, cultured two hours with substance
  The level of expressed mRNA in the presence of chemical substance/The level of expressed mRNA in the absence of chemical substance: 0.8
Yeast gene YER158C, cultured two hours with substance
  The level of expressed mRNA in the presence of chemical substance/The level of expressed mRNA in the absence of chemical substance: 1.2
Yeast gene YER163C, cultured two hours with substance
  The level of expressed mRNA in the presence of chemical substance/The level of expressed mRNA in the absence of chemical substance: 1.2
Yeast gene YER175C, cultured two hours with substance
  The level of expressed mRNA in the presence of chemical substance/The level of expressed mRNA in the absence of chemical substance: 1.2
Yeast gene YFL006W, cultured two hours with substance
  The level of expressed mRNA in the presence of chemical substance/The level of expressed mRNA in the absence of chemical substance: 0.8
Yeast gene YFL010C, cultured two hours with substance
  The level of expressed mRNA in the presence of chemical substance/The level of expressed mRNA in the absence of chemical substance: 1.6
Yeast gene YFL014W, DNA repair protein genes, cultured two hours with substance
  The level of expressed mRNA in the presence of chemical substance/The level of expressed mRNA in the absence of chemical substance: 8.8
Yeast gene YFL024C, cultured two hours with substance
  The level of expressed mRNA in the presence of chemical substance/The level of expressed mRNA in the absence of chemical substance: 0.8
Yeast gene YFL032W, cultured two hours with substance
  The level of expressed mRNA in the presence of chemical substance/The level of expressed mRNA in the absence of chemical substance: 0.8
Yeast gene YFR046C, cultured two hours with substance
  The level of expressed mRNA in the presence of chemical substance/The level of expressed mRNA in the absence of chemical substance: 1.2
Yeast gene YGL006W (transport facilitation protein gene)
  The level of expressed mRNA in the presence of chemical substance/The level of expressed mRNA in the absence of chemical substance: 4.1
Yeast gene YGL037C, cultured two hours with substance
  The level of expressed mRNA in the presence of chemical substance/The level of expressed mRNA in the absence of chemical substance: 2.6
Yeast gene YGL047W, cultured two hours with substance
  The level of expressed mRNA in the presence of chemical substance/The level of expressed mRNA in the absence of chemical substance: 1.2
Yeast gene YGL053W, cultured two hours with substance
  The level of expressed mRNA in the presence of chemical substance/The level of expressed mRNA in the absence of chemical substance: 3.7
Yeast gene YGL121C, cultured two hours with substance
  The level of expressed mRNA in the presence of chemical substance/The level of expressed mRNA in the absence of chemical substance: 3.5
Yeast gene YGL136C, cultured two hours with substance
  The level of expressed mRNA in the presence of chemical substance/The level of expressed mRNA in the absence of chemical substance: 1.1
Yeast gene YGL199C, cultured two hours with substance
  The level of expressed mRNA in the presence of chemical substance/The level of expressed mRNA in the absence of chemical substance: 1.0
Yeast gene YGR008C, cultured for two hours with substance
  The level of expressed mRNA in the presence of chemical substance/The level of expressed mRNA in the absence of chemical substance: 4.2
Yeast gene YGR026W, cultured two hours with the chemical substance
  The level of expressed mRNA in the presence of chemical substance/The level of expressed mRNA in the absence of chemical substance: 1.2
Yeast gene YGR035C, cultured two hours with substance
  The level of expressed mRNA in the presence of chemical substance/The level of expressed mRNA in the absence of chemical substance: 4.3
Yeast gene YGR101W, cultured two hours with substance
  The level of expressed mRNA in the presence of chemical substance/The level of expressed mRNA in the absence of chemical substance: 1.1
Yeast gene YGR110W, cultured two hours with substance
  The level of expressed mRNA in the presence of chemical substance/The level of expressed mRNA in the absence of chemical substance: 2.1
Yeast gene YGR130C, cultured two hours with substance
  The level of expressed mRNA in the presence of chemical substance/The level of expressed mRNA in the absence of chemical substance: 1.6
Yeast gene YGR154C, cultured two hours with substance
  The level of expressed mRNA in the presence of chemical substance/The level of expressed mRNA in the absence of chemical substance: 1.2
Yeast gene YGR213C
  The level of expressed mRNA in the presence of chemical substance/The level of expressed mRNA in the absence of chemical substance: 8.5
Yeast gene YGR221C, cultured two hours with substance
  The level of expressed mRNA in the presence of chemical substance/The level of expressed mRNA in the absence of chemical substance: 1.3
Yeast gene YGR244C, cultured for two hours with substance
  The level of expressed mRNA in the presence of chemical substance/The level of expressed mRNA in the absence of chemical substance: 3.1
Yeast gene YHR029C, cultured two hours with substance
  The level of expressed mRNA in the presence of chemical substance/The level of expressed mRNA in the absence of chemical substance: 2.1
Yeast gene YHR138C, cultured two hours with substance
  The level of expressed mRNA in the presence of chemical substance/The level of expressed mRNA in the absence of chemical substance: 7.1
Yeast gene YHR199C, cultured two hours with substance
  The level of expressed mRNA in the presence of chemical substance/The level of expressed mRNA in the absence of chemical substance: 0.9
Yeast gene YIL023C, cultured two hours with substance
  The level of expressed mRNA in the presence of chemical substance/The level of expressed mRNA in the absence of chemical substance: 1.0
Yeast gene YIL024C, cultured two hours with substance
  The level of expressed mRNA in the presence of chemical substance/The level of expressed mRNA in the absence of chemical substance: 1.0
Yeast gene YIL041W, cultured two hours with substance
  The level of expressed mRNA in the presence of chemical substance/The level of expressed mRNA in the absence of chemical substance: 1.1
Yeast gene YIL087C, cultured two hours with substance
  The level of expressed mRNA in the presence of chemical substance/The level of expressed mRNA in the absence of chemical substance: 1.6
Yeast gene YIL117C, cultured two hours with substance
  The level of expressed mRNA in the presence of chemical substance/The level of expressed mRNA in the absence of chemical substance: 2.6
Yeast gene YJL057C, cultured two hours with substance
  The level of expressed mRNA in the presence of chemical substance/The level of expressed mRNA in the absence of chemical substance: 1.5
Yeast gene YJL066C, cultured two hours with substance
  The level of expressed mRNA in the presence of chemical substance/The level of expressed mRNA in the absence of chemical substance: 1.5
Yeast gene YJL082W, cultured two hours with substance
  The level of expressed mRNA in the presence of chemical substance/The level of expressed mRNA in the absence of chemical substance: 0.3
Yeast gene YJL108C, cultured two hours with substance
  The level of expressed mRNA in the presence of chemical substance/The level of expressed mRNA in the absence of chemical substance: 0.9
Yeast gene YJL149W, cultured two hours with substance
  The level of expressed mRNA in the presence of chemical substance/The level of expressed mRNA in the absence of chemical substance: 1.2
Yeast gene YJL151C, cultured two hours with substance
  The level of expressed mRNA in the presence of chemical substance/The level of expressed mRNA in the absence of chemical substance: 2.4
Yeast gene YJL152W, cultured two hours with substance
  The level of expressed mRNA in the presence of chemical substance/The level of expressed mRNA in the absence of chemical substance: 1.7
Yeast gene YJL161W, cultured two hours with substance
  The level of expressed mRNA in the presence of chemical substance/The level of expressed mRNA in the absence of chemical substance: 2.1
Yeast gene YJL166W, mitochondria-located protein gene, cultured two hours with substance
  The level of expressed mRNA in the presence of chemical substance/The level of expressed mRNA in the absence of chemical substance: 4.0
Yeast gene YJL171C, cultured two hours with substance
  The level of expressed mRNA in the presence of chemical substance/The level of expressed mRNA in the absence of chemical substance: 2.9
Yeast gene YJL186W, cultured two hours with substance
  The level of expressed mRNA in the presence of chemical substance/The level of expressed mRNA in the absence of chemical substance: 0.8
Yeast gene YJR008W, cultured two hours with substance
  The level of expressed mRNA in the presence of chemical substance/The level of expressed mRNA in the absence of chemical substance: 2.7
